Consider 14 compounds from patent US9062071B2, “Substituted piperidines as HDM2 inhibitors” (Merck Sharp & Dohme Corp, priority 2011, dated 2015).

Sequence of HDM2 protein (Q00987 whole entry): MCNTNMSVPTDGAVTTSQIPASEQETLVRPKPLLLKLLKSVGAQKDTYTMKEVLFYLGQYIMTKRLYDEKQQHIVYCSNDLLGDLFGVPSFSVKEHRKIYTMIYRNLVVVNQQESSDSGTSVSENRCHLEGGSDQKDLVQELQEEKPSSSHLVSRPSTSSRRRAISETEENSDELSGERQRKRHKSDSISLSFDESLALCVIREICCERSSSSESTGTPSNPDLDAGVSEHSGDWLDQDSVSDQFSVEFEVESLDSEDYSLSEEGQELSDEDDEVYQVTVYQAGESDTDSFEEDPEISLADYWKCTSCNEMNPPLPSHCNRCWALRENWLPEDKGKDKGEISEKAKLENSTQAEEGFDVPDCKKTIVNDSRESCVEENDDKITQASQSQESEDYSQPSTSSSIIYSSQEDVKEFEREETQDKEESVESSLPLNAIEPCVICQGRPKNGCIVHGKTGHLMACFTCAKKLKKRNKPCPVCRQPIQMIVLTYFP

The assay addresses HDM2 protein (Homo sapiens, UniProt Q00987). Nature of the assay: fluorescence polarization screening assay (FP IC50). It counts as binding. Conditions: class symbols. How it is done: The compounds were evaluated to determine activity at the HDM2 protein by known methods such as the fluorescence polarization screening assay that measures the inhibitory concentration that achieves 50% of maximal activity (FP IC50) and the dissociation constant for inhibitor binding (FP Ki). [Zhang et al., J. Analytical Biochemistry 331: 138-146 (2004)].
On the technique in general: In fluorescence polarisation assays a small probe gives low polarisation when free and higher when bound to something large.
With `CCC[C@H]1N(C(=O)c2ncccc2C(F)(F)F)CCC[C@@]1(Oc1csc(C(F)(F)F)c1)C(=O)N1Cc2ccc(Cl)cc2C[C@@H]1C(=O)N1CCC(O)CC1` [Compound A168, 1-{[(3R)-6-chloro-2-{[(2R,3S)-2-propyl-1-{[3-(trifluoromethyl)pyridin-2-yl]carbonyl}-3-{[5-(trifluoromethyl)thiophen-3-yl]oxy}piperidin-3-yl]carbonyl}-1,2,3,4-tetrahydroisoquinolin-3-yl]carbonyl}piperidin-4-ol], the half-inhibitory concentration (IC50) (commonly the concentration needed to halve the response being measured) fell in the range of 0.001 to 0.1 µM.
Compound `CCC[C@H]1N(C(=O)c2ncccc2C(F)(F)F)CCC[C@@]1(Oc1csc(C(F)(F)F)c1)C(=O)N1Cc2ccc(Cl)cc2C[C@@H]1C(=O)N1CCC(OC)CC1` [Compound A169, (3R)-6-chloro-3-[(4-methoxypiperidin-1-yl)carbonyl]-2-{[(2R,3S)-2-propyl-1-{[3-(trifluoromethyl)pyridin-2-yl]carbonyl}-3-{[5-(trifluoromethyl)thiophen-3-yl]oxy}piperidin-3-yl]carbonyl}-1,2,3,4-tetrahydroisoquinoline] showed an IC50 of 0.001 to 0.1 µM.
With `CCC[C@H]1N(C(=O)c2ncccc2C(F)(F)F)CCC[C@@]1(Oc1csc(C(F)(F)F)c1)C(=O)N1Cc2ccc(Cl)cc2C[C@@H]1C(=O)N1CCC[C@@H](O)C1` [Compound A170, (3R)-1-{[(3R)-6-chloro-2-{[(2R,3S)-2-propyl-1-{[3-(trifluoromethyl)pyridin-2-yl]carbonyl}-3-{[5-(trifluoromethyl)thiophen-3-yl]oxy}piperidin-3-yl]carbonyl}-1,2,3,4-tetrahydroisoquinolin-3-yl]carbonyl}piperidin-3-ol] the figure was 0.001 to 0.1 µM; with `CCC[C@H]1N(C(=O)c2ncccc2C(F)(F)F)CCC[C@@]1(Oc1csc(C(F)(F)F)c1)C(=O)N1Cc2sccc2CC1C(=O)O` (stereo partly drawn) [Compound A171, 6-{[(2R,3S)-2-propyl-1-{[3-(trifluoromethyl)pyridin-2-yl]carbonyl}-3-{[5-(trifluoromethyl)thiophen-3-yl]oxy}piperidin-3-yl]carbonyl}-4,5,6,7-tetrahydrothieno[2,3-c]pyridine-5-carboxylic acid], 0.101 to 20 µM.
Take `CCC[C@H]1N(C(=O)c2ncccc2C(F)(F)F)CCC[C@@]1(Oc1csc(C(F)(F)F)c1)C(=O)N1Cc2sc(Cl)cc2CC1C(=O)O` (stereo partly drawn) [Compound A172, 2-chloro-6-{[(2R,3S)-2-propyl-1-{[3-(trifluoromethyl)pyridin-2-yl]carbonyl}-3-{[5-(trifluoromethyl)thiophen-3-yl]oxy}piperidin-3-yl]carbonyl}-4,5,6,7-tetrahydrothieno[2,3-c]pyridine-5-carboxylic acid]: the half-maximal inhibitory concentration (IC50) lay in the range of 0.001 to 0.1 µM.
Turning to `CCC[C@H]1N(C(=O)c2ncccc2C(F)(F)F)CCC[C@@]1(Oc1csc(C(F)(F)F)c1)C(=O)N1Cc2sccc2CC1C(=O)O` (stereo partly drawn) [Compound A173, 6-{[(2R,3S)-2-propyl-1-{[3-(trifluoromethyl)pyridin-2-yl]carbonyl}-3-{[5-(trifluoromethyl)thiophen-3-yl]oxy}piperidin-3-yl]carbonyl}-4,5,6,7-tetrahydrothieno[2,3-c]pyridine-5-carboxylic acid], the IC50 is 0.101 to 20 µM.
The figure for `CCC[C@H]1N(C(=O)c2ncccc2C(F)(F)F)CCC[C@@]1(Oc1csc(C(F)(F)F)c1)C(=O)N1Cc2sc(Cl)cc2CC1C(=O)O` (stereo partly drawn) [Compound A174, 2-chloro-6-{[(2R,3S)-2-propyl-1-{[3-(trifluoromethyl)pyridin-2-yl]carbonyl}-3-{[5-(trifluoromethyl)thiophen-3-yl]oxy}piperidin-3-yl]carbonyl}-4,5,6,7-tetrahydrothieno[2,3-c]pyridine-5-carboxylic acid] is 0.001 to 0.1 µM; for `CCC[C@H]1N(C(=O)c2ncccc2C(F)(F)F)CCC[C@@]1(Oc1csc(C(F)(F)F)c1)C(=O)N1Cc2sc(Br)cc2C[C@H]1C(=O)NS(C)(=O)=O` [Compound A175, (5S)-2-bromo-N-(methylsulfonyl)-6-{[(2R,3S)-2-propyl-1-{[3-(trifluoromethyl)pyridin-2-yl]carbonyl}-3-{[5-(trifluoromethyl)thiophen-3-yl]oxy}piperidin-3-yl]carbonyl}-4,5,6,7-tetrahydrothieno[2,3-c]pyridine-5-carboxamide] it is 0.001 to 0.1 µM.
Turning to `CCC[C@H]1N(C(=O)c2ncccc2C(F)(F)F)CCC[C@@]1(Oc1csc(C(F)(F)F)c1)C(=O)N1CCc2cc(Cl)ccc2C1CC(C)C` (stereo partly drawn) [Compound A176, 6-chloro-1-(2-methylpropyl)-2-{[(2R,3S)-2-propyl-1-{[3-(trifluoromethyl)pyridin-2-yl]carbonyl}-3-{[5-(trifluoromethyl)thiophen-3-yl]oxy}piperidin-3-yl]carbonyl}-1,2,3,4-tetrahydroisoquinoline], the IC50 is 0.101 to 20 µM.
Regarding `CCC[C@H]1N(C(=O)c2ncccc2C(F)(F)F)CCC[C@@]1(Oc1csc(C(F)(F)F)c1)C(=O)N1CCc2cc(Cl)ccc2C1CC(C(=O)O)C(C)C` (stereo partly drawn) [Compound A177, 2-[(6-chloro-2-{[(2R,3S)-2-propyl-1-{[3-(trifluoromethyl)pyridin-2-yl]carbonyl}-3-{[5-(trifluoromethyl)thiophen-3-yl]oxy}piperidin-3-yl]carbonyl}-1,2,3,4-tetrahydroisoquinolin-1-yl)methyl]-3-methylbutanoic acid], the IC50 fell in the range of 0.101 to 20 µM.
With `CCC[C@H]1N(C(=O)c2ncccc2C(F)(F)F)CCC[C@@]1(Oc1csc(C(F)(F)F)c1)C(=O)N1CCc2cc(Cl)ccc2C1CC(C(=O)O)C(C)C` (stereo partly drawn) [Compound A178, 2-[(6-chloro-2-{[(2R,3S)-2-propyl-1-{[3-(trifluoromethyl)pyridin-2-yl]carbonyl}-3-{[5-(trifluoromethyl)thiophen-3-yl]oxy}piperidin-3-yl]carbonyl}-1,2,3,4-tetrahydroisoquinolin-1-yl)methyl]-3-methylbutanoic acid] the figure was 0.001 to 0.1 µM; with `CCC[C@H]1N(C(=O)c2ncccc2C(F)(F)F)CCC[C@@]1(Oc1csc(C(F)(F)F)c1)C(=O)N1CCc2cc(Cl)ccc2C1CC(C(=O)O)C(C)C` (stereo partly drawn) [Compound A179, 2-[(6-chloro-2-{[(2R,3S)-2-propyl-1-{[3-(trifluoromethyl)pyridin-2-yl]carbonyl}-3-{[5-(trifluoromethyl)thiophen-3-yl]oxy}piperidin-3-yl]carbonyl}-1,2,3,4-tetrahydroisoquinolin-1-yl)methyl]-3-methylbutanoic acid], 0.001 to 0.1 µM; with `CCC[C@H]1N(C(=O)c2ncccc2C(F)(F)F)CCC[C@@]1(Oc1csc(C(F)(F)F)c1)C(=O)N1CCc2cc(Cl)ccc2C1CC(C(=O)O)C(C)C` (stereo partly drawn) [Compound A180, 2-[(6-chloro-2-{[(2R,3S)-2-propyl-1-{[3-(trifluoromethyl)pyridin-2-yl]carbonyl}-3-{[5-(trifluoromethyl)thiophen-3-yl]oxy}piperidin-3-yl]carbonyl}-1,2,3,4-tetrahydroisoquinolin-1-yl)methyl]-3-methylbutanoic acid], 0.101 to 20 µM.
With `CCC[C@H]1N(C(=O)c2ncccc2C(F)(F)F)CCC[C@@]1(Oc1csc(C(F)(F)F)c1)C(=O)N1CCc2cc(Cl)ccc2C1COCC(=O)O` (stereo partly drawn) [Compound A181, [(6-chloro-2-{[(2R,3S)-2-propyl-1-{[3-(trifluoromethyl)pyridin-2-yl]carbonyl}-3-{[5-(trifluoromethyl)thiophen-3-yl]oxy}piperidin-3-yl]carbonyl}-1,2,3,4-tetrahydroisoquinolin-1-yl)methoxy]acetic acid] the figure was 0.001 to 0.1 µM.
